Data from patent US8658646B2, “Pyrrolopyrazine kinase inhibitors” (Hoffmann-LaRoche Inc., priority 2011, dated 2014).

What follows are molecules tested against T1, JAK3: Recombinant human kinase domain (Homo sapiens, UniProt P52333) (assay: Determination of IC50 of Janus Kinase (JAK) inhibition, radioactive end-point 33P-ATP assay, JAK3). Settings: ATP 1.5 uM, peptide 50 uM, 20 minutes, read-out: JAK3-INHIB-DR/v1~NO ADDITIVE~Enzyme_Conc = 100.
T1 construct: JAK3: Recombinant human kinase domain from Millipore (Cat #14-629) or prepared; purchased Millipore 14-629
Assay type: biochemical

T1 sequence (P52333 822-1111 limits assumed): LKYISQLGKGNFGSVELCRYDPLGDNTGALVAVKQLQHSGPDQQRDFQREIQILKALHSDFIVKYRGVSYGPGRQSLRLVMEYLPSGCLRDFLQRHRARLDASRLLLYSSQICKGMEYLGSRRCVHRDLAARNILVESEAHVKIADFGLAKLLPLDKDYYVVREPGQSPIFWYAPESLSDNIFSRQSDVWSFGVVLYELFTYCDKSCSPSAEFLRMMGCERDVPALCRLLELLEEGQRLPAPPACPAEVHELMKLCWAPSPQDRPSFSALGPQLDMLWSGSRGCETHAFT

SMILES | IC50 [nM]
Cc1ccc2c(-c3cnc4[nH]cc(C(=O)N[C@H](C)C(=O)N5CC(C#N)C5)c4n3)nn(C)c2c1 [Example I-82] | 1.36
C[C@@H](NC(=O)c1c[nH]c2ncc(-n3cnc4cc(Cl)ccc43)nc12)C(=O)N1CC(C#N)C1 [Example I-225, 2-(5-Chloro-benzoimidazol-1-yl)-5H-pyrrolo[2,3-b]pyrazine-7-carboxylic acid [(R)-2-(3-cyano-azetidin-1-yl)-1-methyl-2-oxo-ethyl]-amide] | 144
Cn1nc(-c2cnc3[nH]cc(C(=O)N[C@@H](C(=O)N4CCC(C#N)CC4)C(C)(C)C)c3n2)c2cc(Cl)ccc21 [Example I-8, 2-(5-Chloro-1-methyl-1H-indazol-3-yl)-5H-pyrrolo[2,3-b]pyrazine-7-carboxylic acid [(R)-1-(4-cyano-piperidine-1-carbonyl)-2,2-dimethyl-propyl]-amide] | 2.83
Cn1nc(-c2cnc3[nH]cc(C(=O)N[C@@H](C(=O)N4CCC(C#N)CC4)C4CC4)c3n2)c2ccc(C3CC3)cc21 [Example I-9, 2-(6-Cyclopropyl-1-methyl-1H-indazol-3-yl)-5H-pyrrolo[2,3-b]pyrazine-7-carboxylic acid [(R)-2-(4-cyano-piperidin-1-yl)-1-cyclopropyl-2-oxo-ethyl]-amide] | 4.01
Cn1nc(-c2cnc3[nH]cc(C(=O)NCC4CC4)c3n2)c2ccc(F)cc21 [Example I-117, 2-(6-Fluoro-1-methyl-1H-indazol-3-yl)-5H-pyrrolo[2,3-b]pyrazine-7-carboxylic acid cyclopropylmethyl-amide] | 8.48
CC(NC(=O)c1c[nH]c2ncc(-c3nn(C)c4cc(F)ccc34)nc12)c1ncco1 (stereo not drawn) [Example I-49, 2-(6-Fluoro-1-methyl-1H-indazol-3-yl)-5H-pyrrolo[2,3-b]pyrazine-7-carboxylic acid (1-oxazol-2-yl-ethyl)-amide] | 5.66
C[C@@H](NC(=O)c1c[nH]c2ncc(-c3nn(C)c4c3CCCC4)nc12)C(=O)N1CC(C#N)C1 [Example I-26, 2-(1-Methyl-4,5,6,7-tetrahydro-1H-indazol-3-yl)-5H-pyrrolo[2,3-b]pyrazine-7-carboxylic acid [(R)-2-(3-cyano-azetidin-1-yl)-1-methyl-2-oxo-ethyl]-amide] | 5.7
C[C@@H](NC(=O)c1c[nH]c2ncc(-c3nn(C)c4cc(Cl)ccc34)nc12)C(=O)N1CCOCC1 [Example I-28, 2-(6-Chloro-1-methyl-1H-indazol-3-yl)-5H-pyrrolo[2,3-b]pyrazine-7-carboxylic acid ((R)-1-methyl-2-morpholin-4-yl-2-oxo-ethyl)-amide] | 84.6
C[C@@H](NC(=O)c1c[nH]c2ncc(-c3nc(CO)n4cc(F)ccc34)nc12)C(=O)N1CC(C#N)C1 [Example I-35, 2-(6-Fluoro-3-hydroxymethyl-imidazo[1,5-a]pyridin-1-yl)-5H-pyrrolo[2,3-b]pyradine-7-carboxylic acid [(R)-2-(3-cyano-azetidin-1-yl)-1-methyl-2-oxo-ethyl]-amide] | 0.33
Cn1nc(-c2cnc3[nH]cc(C(=O)N[C@@H](C(=O)N4CCC(C#N)CC4)C(C)(C)C)c3n2)c2ccc(Cl)cc21 [Example I-19, 2-(6-Chloro-1-methyl-1H-indazol-3-yl)-5H-pyrrolo[2,3-b]pyrazine-7-carboxylic acid [(R)-1-(4-cyano-piperidine-1-carbonyl)-2,2-dimethyl-propyl]-amide] | 2.12
C[C@@H](NC(=O)c1c[nH]c2ncc(-c3nn(C)c4cc(F)ccc34)nc12)c1ccc(Br)cc1 [Example I-216, 2-(6-Fluoro-1-methyl-1H-indazol-3-yl)-5H-pyrrolo[2,3-b]pyrazine-7-carboxylic acid [(R)-1-(4-bromo-phenyl)-ethyl]-amide] | 13
CC[C@@H](COC)NC(=O)c1c[nH]c2ncc(-c3nn(C)c4cc(Cl)ccc34)nc12 [Example I-173, 2-(6-Chloro-1-methyl-1H-indazol-3-yl)-5H-pyrrolo[2,3-b]pyrazine-7-carboxylic acid ((S)-1-methoxymethyl-propyl)-amide] | 3.56
[2H]C([2H])([2H])OC[C@H](C)NC(=O)c1c[nH]c2ncc(-c3nn(C)c4cc(F)ccc34)nc12 [Example I-182, 2-(6-Fluoro-1-methyl-1H-indazol-3-yl)-5H-pyrrolo[2,3-b]pyrazine-7-carboxylic acid ((S)-1-methyl-2-trideuteromethoxy-ethyl)-amide] | 1.07
Cc1nc(-c2cnc3[nH]cc(C(=O)N[C@H](C)C(=O)N4CC(C#N)C4)c3n2)c2ccc(F)cn12 [Example I-34, 2-(6-Fluoro-3-methyl-imidazo[1,5-a]pyridin-1-yl)-5H-pyrrolo[2,3-b]pyrazine-7-carboxylic acid [(R)-2-(3-cyano-azetidin-1-yl)-1-methyl-2-oxo-ethyl]-amide] | 1.27

Further molecules by falling IC50, results first:

IC50 [nM] | SMILES
20.5 | C[C@@H](NC(=O)c1c[nH]c2ncc(-c3nn(C)c4cc(Cl)ccc34)nc12)C(=O)N1CC2(COC2)C1 [Example I-27, 2-(6-Chloro-1-methyl-1H-indazol-3-yl)-5H-pyrrolo[2,3-b]pyrazine-7-carboxylic acid [(R)-1-methyl-2-(2-oxa-6-aza-spiro[3.3]hept-6-yl)-2-oxo-ethyl]-amide]
17.6 | C[C@@H](NC(=O)c1c[nH]c2ncc(-c3nn(C)c4cc(Cl)ccc34)nc12)[C@@H]1C[C@@H]1C#N (single isomer, unassigned) [Example I-206]
5.39 | C[C@@H](NC(=O)c1c[nH]c2ncc(-c3nn(CCCO)c4cc(Cl)ccc34)nc12)C(=O)N1CC(C#N)C1 [Example I-96, 2-[6-Chloro-1-(3-hydroxy-propyl)-1H-indazol-3-yl]-5H-pyrrolo[2,3-b]pyrazine-7-carboxylic acid [(R)-2-(3-cyano-azetidin-1-yl)-1-methyl-2-oxo-ethyl]-amide]
2.01 | C[C@@H](NC(=O)c1c[nH]c2ncc(-c3nn(C)c4cc(Cl)ccc34)nc12)C(=O)N1CC[C@H](F)C1 [Example I-118, 2-(6-Chloro-1-methyl-1H-indazol-3-yl)-5H-pyrrolo[2,3-b]pyrazine-7-carboxylic acid [(R)-2-((S)-3-fluoro-pyrrolidin-1-yl)-1-methyl-2-oxo-ethyl]-amide]
1.77 | C[C@H](NC(=O)c1c[nH]c2ncc(-c3nn(C)c4ccc(Cl)cc34)nc12)C(C)(C)C [Example I-11, 2-(5-Chloro-1-methyl-1H-indazol-3-yl)-5H-pyrrolo[2,3-b]pyrazine-7-carboxylic acid ((S)-1,2,2-trimethyl-propyl)-amide]
1.06 | Cn1nc(-c2cnc3[nH]cc(C(=O)N[C@@H](C(=O)N4CCC(C#N)CC4)C4CC4)c3n2)c2cc(Cl)ccc21 [Example I-3, 2-(5-Chloro-1-methyl-1H-indazol-3-yl)-5H-pyrrolo[2,3-b]pyrazine-7-carboxylic acid [(R)-2-(4-cyano-piperidin-1-yl)-1-cyclopropyl-2-oxo-ethyl]-amide]
0.54 | COC[C@@H](NC(=O)c1c[nH]c2ncc(-c3nn(C)c4cc(Cl)ccc34)nc12)C(=O)N1CC(C#N)C1 [Example I-175, 2-(6-Chloro-1-methyl-1H-indazol-3-yl)-5H-pyrrolo[2,3-b]pyrazine-7-carboxylic acid [(R)-2-(3-cyano-azetidin-1-yl)-1-methoxymethyl-2-oxo-ethyl]-amide]
